For orientation: EC50 means the concentration that produces a half-maximal response.

Assay [1] can be described thus: Agonist activity at human GPR120 long isoform transfected in CHO-K1 cells by beta-arrestin recruitment assay. The class given is cell-based. Background: Arrestin recruitment assays detect the binding of arrestin to an activated receptor.
Assay [2] in a line: Agonist activity at human GPR120 short isoform transfected in CHO-K1 cells by beta-arrestin recruitment assay. In kind it is cell-based.
The nature of assay [3]: Agonist activity at human GPR120 long isoform transfected in HEK293 cells assessed as calcium flux by FLIPR assay. In kind it is cell-based. A general note: Calcium assays in cells follow changes in intracellular calcium, usually with a dye or a luminescent sensor.
Assay [4] relates to Mus musculus. Nature of the assay: Antidiabetic activity in DIO mouse assessed as glucose level at 10 mg/kg measured from -30 to 90 mins by oral glucose tolerance test. The class given is functional.
Assay [5] deals with Mus musculus. Nature of the assay: Antidiabetic activity in C57bl6 mouse assessed as glucose level at 3 mg/kg by intraperitoneal glucose tolerance test. In kind it is functional.
Assay [6] deals with Mus musculus. Nature of the assay: Antidiabetic activity in C57bl6 mouse assessed as glucose level at 3 mg/kg by oral glucose tolerance test. The class given is functional.
Assay [7] relates to Mus musculus. Nature of the assay: Antidiabetic activity in C57bl6 mouse assessed as glucose level at 10 mg/kg by intraperitoneal glucose tolerance test. In kind it is functional.
Assay [8] relates to Mus musculus. As to the kind of experiment: Antidiabetic activity in C57bl6 mouse assessed as glucose level at 30 mg/kg by intraperitoneal glucose tolerance test. In kind it is functional.
A short description of assay [9]: Agonist activity at human GPR120 short isoform transfected in HEK293 cells assessed as calcium flux by FLIPR assay. The class given is cell-based.

The structures appear in SMILES notation.

With `Cc1ccccc1-c1snc(Cl)c1COc1c(F)cc(CCC(=O)O)cc1F`, the EC50 in [1] turned out to be 322 nM; in [2] it was 990 nM; in assay [3], 344 nM.

In the case of `O=C(O)CCc1cc(F)c(OCc2c(C3CCCC3)nsc2C(F)(F)F)c(F)c1`, the EC50 in [1] is 278 nM; in assay [2], 139 nM; in assay [3], 37 nM. The Activity is reported as -0.52% with Mus musculus [4], -14% in the assay with Mus musculus [5] and -37% with Mus musculus [6].

In the case of `Cc1c(CCC(=O)O)ccc(OCc2sc(F)cc2-c2ccc(Cl)cc2)c1C`, the concentration giving a half-maximal response (EC50) in assay [2] worked out at 83 nM; in [3] it was 49 nM.

Regarding `Cc1c(CCC(=O)O)ccc(OCc2c(-c3ccc(Cl)cc3)nsc2C(F)(F)F)c1C`, the concentration for a half-maximal effect (EC50) in [1] is 141 nM; in assay [2], 100 nM; in [3], 155 nM. Besides, the values for the Activity with Mus musculus [5], with Mus musculus [7] and in the assay on Mus musculus [8] were -34%, -61% and -53%, respectively.

Turning to `CCc1ccc(-c2cc(F)sc2COc2ccc(CCC(=O)O)c(C)c2C)cc1`, the concentration for a half-maximal effect (EC50) was 218 nM in assay [1], 205 nM in assay [2] and 24 nM in [3].

Take `OCCCc1cc(F)c(OCc2c(-c3ccc(Cl)cc3F)nsc2C(F)(F)F)c(F)c1`: the figures for the EC50 in assay [2] and in assay [9] were 80 nM and 139 nM, respectively.

Values taken from ChEMBL document CHEMBL3751700, “Therapeutic Potential of GPR120 Agonists for the Treatment of Type 2 Diabetes” (ACS Med Chem Lett, 2015).
